{
  "source": "patent US9403823B2",
  "about": "“Protein kinase inhibitors” (ORIBASE PHARMA, priority 2012, dated 2016)",
  "key": {"[1]": {"test_system": "BxPC-3 cell line", "experiment": "In vitro cell proliferation assay (MTT), BxPC-3", "assay_type": "cell-based", "settings": "Homo sapiens; BxPC-3, 72 hr, MTT; read-out: EC50, anti-proliferative activity", "method": "2) In Vitro Cell Proliferation Assays (Table 22 to Table 35)\nCancer cell lines (5×10^3 cells per well) or HUVEC (1×10^4 cells per well) or HRMEC (1×10^4 cells per well) were distributed in 96-well plates and incubating in duplicate with escalating concentrations (10 nM to 3 μM) of compounds for 72 hr. Cell proliferation was measured using MTT (3[4,5-dimethylthiazol-2-yl]-2,5-diphenyltetrazolium bromide)."}, "[2]": {"target": "T1, BRAF (Homo sapiens, UniProt P15056)", "T1 construct": "purchased Invitrogen", "experiment": "In vitro kinase assay (Z'-LYTE), BRAF", "assay_type": "biochemical", "settings": "read-out: % of inhibition of the kinase compared to the control", "summary_of_the_method": "(§1)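 Peptide/kinase mix and ATP (at apparent Km) were combined in kinase buffer with compound at 100 nM, or 10 μM against ABL and its T315I mutant. Non-phosphorylated peptide was then proteolytically cleaved, and donor-to-acceptor emission ratio gave the extent of phosphorylation.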"}, "[3]": {"target": "T2, VEGFR1 (Homo sapiens, UniProt P17948)", "T2 construct": "purchased Invitrogen", "experiment": "In vitro kinase assay (Z'-LYTE), VEGFR1", "assay_type": "biochemical", "settings": "read-out: % of inhibition of the kinase compared to the control", "method": "(§2) 1) In Vitro Kinase Assays (Table 10 to Table 21)\n(§3) The inhibitory activity of the compounds on several kinases including BRAF, EGFR (ErbB1), EGFR (ErbB1) T790M L858R, FGFR2, KDR (VEGFR2), PDGFRA (PDGFR alpha), SRC and other was evaluated by Invitrogen using the Z′-LYTE® technology. Briefly, the Z′-LYTE® biochemical assay employs a fluorescence-based, coupled-enzyme format and is based on the differential sensitivity of phosphorylated and non-phosphorylated peptides to proteolytic cleavage. The peptide substrate is labeled with two fluorophores—one at each end—that make up a FRET pair. A ratiometric method, which calculates the ratio (the Emission Ratio) of donor emission to acceptor emission after excitation of the donor fluorophore at 400 nm, is used to quantitate reaction progress.\n(§4) The compounds are screened in 1% DMSO (final) in the well. For 10 point titrations, 3-fold serial dilutions are conducted from the starting concentration. All Peptide/Kinase Mixtures are diluted to a 2× working concentration in the appropriate Kinase Buffer. All ATP Solutions are diluted to a 4× working concentration in Kinase Buffer (50 mM HEPES pH 7.5, 0.01% BRIJ-35, 10 mM MgCl2, 1 mM EGTA). ATP Km apparent is previously determined using a Z′-LYTE® assay. […]"}, "[4]": {"target": "T3, ABL (Homo sapiens, UniProt P00519)", "T3 construct": "purchased Invitrogen", "experiment": "In vitro kinase assay (Z'-LYTE), ABL", "assay_type": "biochemical", "settings": "read-out: % of inhibition of the kinase compared to the control", "method": "as §2, §3\n(§5) The compounds are screened in 1% DMSO (final) in the well. For 10 point titrations, 3-fold serial dilutions are conducted from the starting concentration. All Peptide/Kinase Mixtures are diluted to a 2× working concentration in the appropriate Kinase Buffer. All ATP Solutions are diluted to a 4× working concentration in Kinase Buffer (50 mM HEPES pH 7.5, 0.01% BRIJ-35, 10 mM MgCl2, 1 mM EGTA). ATP Km apparent is previously determined using a Z′-LYTE® assay.\n(§6) Each compound was incubated at a concentration of 100 nM (excepted to test the activity against ABL and ABL T315I for which the compounds were incubated at a concentration of 10 μM) and the tables 10 to 21 summarize the results obtained showing the inhibitory power of a compound."}, "[5]": {"test_system": "A549 cell line", "experiment": "In vitro cell proliferation assay (MTT), A549", "assay_type": "cell-based", "settings": "Homo sapiens; A549, 72 hr, MTT; read-out: EC50, anti-proliferative activity", "summary_of_the_method": "(§7)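 Seed cells (HRMEC 1×10^4/well; cancer lines 5×10^3/well), add compounds at escalating concentrations from 10 nM to 3 μM in duplicate, incubate 72 hr, then measure proliferation with MTT.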"}, "[6]": {"target": "T4, PDGFRA (PDGFR alpha) (Homo sapiens, UniProt P16234)", "T4 construct": "purchased Invitrogen", "experiment": "In vitro kinase assay (Z'-LYTE), PDGFRA", "assay_type": "biochemical", "settings": "read-out: % of inhibition of the kinase compared to the control", "summary_of_the_method": "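Inhibition read as emission ratio (donor/acceptor, 400 nm excitation) of a FRET-labelled peptide, phosphorylation protecting it from proteolytic cleavage. Compounds tested once at 100 nM for VEGFR1 and PDGFRA, at 10 μM for ABL and ABL T315I, 1% DMSO final. ATP at previously determined apparent Km.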"}, "[7]": {"target": "T5, KDR (VEGFR2) (Homo sapiens, UniProt P35968)", "T5 construct": "purchased Invitrogen", "T5 sequence (P35968 20-1356)": "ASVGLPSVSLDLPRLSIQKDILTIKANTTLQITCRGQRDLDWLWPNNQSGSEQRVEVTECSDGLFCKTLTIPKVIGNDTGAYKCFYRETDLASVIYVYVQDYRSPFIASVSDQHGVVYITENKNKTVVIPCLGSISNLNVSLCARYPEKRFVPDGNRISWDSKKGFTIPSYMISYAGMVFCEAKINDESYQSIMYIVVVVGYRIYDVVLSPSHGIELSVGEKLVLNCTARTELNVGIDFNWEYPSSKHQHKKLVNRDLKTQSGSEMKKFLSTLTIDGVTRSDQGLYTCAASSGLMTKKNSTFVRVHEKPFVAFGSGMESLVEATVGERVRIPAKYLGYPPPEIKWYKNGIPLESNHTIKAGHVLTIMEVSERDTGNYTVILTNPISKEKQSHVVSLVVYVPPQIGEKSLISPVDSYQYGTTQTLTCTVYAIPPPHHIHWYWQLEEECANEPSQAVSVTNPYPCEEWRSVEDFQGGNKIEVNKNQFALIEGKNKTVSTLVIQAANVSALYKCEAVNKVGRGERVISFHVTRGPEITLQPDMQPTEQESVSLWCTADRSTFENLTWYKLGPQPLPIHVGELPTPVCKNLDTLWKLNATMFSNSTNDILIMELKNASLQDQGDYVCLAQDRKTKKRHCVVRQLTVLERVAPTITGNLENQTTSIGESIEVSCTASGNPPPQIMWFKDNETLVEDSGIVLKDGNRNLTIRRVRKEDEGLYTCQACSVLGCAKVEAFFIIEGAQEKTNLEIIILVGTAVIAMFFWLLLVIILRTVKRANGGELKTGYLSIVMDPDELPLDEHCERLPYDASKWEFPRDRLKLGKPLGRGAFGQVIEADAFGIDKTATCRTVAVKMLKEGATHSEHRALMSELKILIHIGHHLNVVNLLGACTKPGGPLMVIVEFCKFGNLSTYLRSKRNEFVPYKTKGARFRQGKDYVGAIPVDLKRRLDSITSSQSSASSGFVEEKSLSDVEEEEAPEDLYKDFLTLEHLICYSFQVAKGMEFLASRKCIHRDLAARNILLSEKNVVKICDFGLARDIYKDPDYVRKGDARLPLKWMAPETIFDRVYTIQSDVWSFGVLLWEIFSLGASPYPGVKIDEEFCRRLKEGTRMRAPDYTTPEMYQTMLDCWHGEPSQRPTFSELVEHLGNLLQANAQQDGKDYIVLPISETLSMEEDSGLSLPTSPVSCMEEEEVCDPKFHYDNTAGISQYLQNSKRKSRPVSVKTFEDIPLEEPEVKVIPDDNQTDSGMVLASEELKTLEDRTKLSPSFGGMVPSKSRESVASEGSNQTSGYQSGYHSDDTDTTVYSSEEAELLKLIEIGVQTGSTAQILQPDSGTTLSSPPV", "experiment": "In vitro kinase assay (Z'-LYTE), KDR (VEGFR2)", "assay_type": "biochemical", "settings": "read-out: % of inhibition of the kinase compared to the control", "summary_of_the_method": "as §1"}, "[8]": {"target": "T6, EGFR (ErbB1) T790M L858R (Homo sapiens, UniProt P00533, L858R/T790M)", "T6 construct": "purchased Invitrogen", "T6 sequence (P00533 25-1210 T790M/L858R)": "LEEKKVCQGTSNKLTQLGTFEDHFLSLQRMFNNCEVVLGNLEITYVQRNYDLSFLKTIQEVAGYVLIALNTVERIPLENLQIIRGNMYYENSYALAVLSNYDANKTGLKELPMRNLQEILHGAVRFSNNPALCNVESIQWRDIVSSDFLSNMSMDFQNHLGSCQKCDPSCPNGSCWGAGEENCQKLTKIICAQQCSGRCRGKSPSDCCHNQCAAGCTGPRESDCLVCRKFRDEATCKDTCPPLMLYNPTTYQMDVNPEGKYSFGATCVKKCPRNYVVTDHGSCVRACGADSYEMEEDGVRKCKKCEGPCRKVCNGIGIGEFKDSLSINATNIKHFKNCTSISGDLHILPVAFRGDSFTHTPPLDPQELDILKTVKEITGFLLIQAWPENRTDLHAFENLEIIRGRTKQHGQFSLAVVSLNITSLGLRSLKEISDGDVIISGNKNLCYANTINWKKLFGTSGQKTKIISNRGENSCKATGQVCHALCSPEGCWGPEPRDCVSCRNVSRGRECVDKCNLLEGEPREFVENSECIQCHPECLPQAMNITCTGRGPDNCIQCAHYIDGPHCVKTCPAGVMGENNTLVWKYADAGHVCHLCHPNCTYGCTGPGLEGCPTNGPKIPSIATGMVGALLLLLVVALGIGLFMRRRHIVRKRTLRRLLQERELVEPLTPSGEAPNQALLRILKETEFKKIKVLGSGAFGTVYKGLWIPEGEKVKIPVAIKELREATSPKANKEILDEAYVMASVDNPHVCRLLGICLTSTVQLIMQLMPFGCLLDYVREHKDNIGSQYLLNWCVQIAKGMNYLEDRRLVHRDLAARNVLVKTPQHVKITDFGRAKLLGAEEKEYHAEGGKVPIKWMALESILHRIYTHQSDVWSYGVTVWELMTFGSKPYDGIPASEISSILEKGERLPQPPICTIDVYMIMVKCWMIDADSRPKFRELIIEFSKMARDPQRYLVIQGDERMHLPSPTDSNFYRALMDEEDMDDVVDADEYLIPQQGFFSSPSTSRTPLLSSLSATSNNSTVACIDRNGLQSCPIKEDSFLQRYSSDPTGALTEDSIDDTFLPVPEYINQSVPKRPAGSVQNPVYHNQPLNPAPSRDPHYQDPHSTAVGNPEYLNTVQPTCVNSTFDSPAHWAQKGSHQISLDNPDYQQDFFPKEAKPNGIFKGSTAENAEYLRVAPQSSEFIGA", "experiment": "In vitro kinase assay (Z'-LYTE), EGFR (ErbB1) T790M L858R", "assay_type": "biochemical", "settings": "read-out: % of inhibition of the kinase compared to the control", "summary_of_the_method": "as §1"}, "[9]": {"target": "T7, EGFR (ErbB1) (Homo sapiens, UniProt P00533)", "T7 construct": "purchased Invitrogen", "T7 sequence (P00533 25-1210)": "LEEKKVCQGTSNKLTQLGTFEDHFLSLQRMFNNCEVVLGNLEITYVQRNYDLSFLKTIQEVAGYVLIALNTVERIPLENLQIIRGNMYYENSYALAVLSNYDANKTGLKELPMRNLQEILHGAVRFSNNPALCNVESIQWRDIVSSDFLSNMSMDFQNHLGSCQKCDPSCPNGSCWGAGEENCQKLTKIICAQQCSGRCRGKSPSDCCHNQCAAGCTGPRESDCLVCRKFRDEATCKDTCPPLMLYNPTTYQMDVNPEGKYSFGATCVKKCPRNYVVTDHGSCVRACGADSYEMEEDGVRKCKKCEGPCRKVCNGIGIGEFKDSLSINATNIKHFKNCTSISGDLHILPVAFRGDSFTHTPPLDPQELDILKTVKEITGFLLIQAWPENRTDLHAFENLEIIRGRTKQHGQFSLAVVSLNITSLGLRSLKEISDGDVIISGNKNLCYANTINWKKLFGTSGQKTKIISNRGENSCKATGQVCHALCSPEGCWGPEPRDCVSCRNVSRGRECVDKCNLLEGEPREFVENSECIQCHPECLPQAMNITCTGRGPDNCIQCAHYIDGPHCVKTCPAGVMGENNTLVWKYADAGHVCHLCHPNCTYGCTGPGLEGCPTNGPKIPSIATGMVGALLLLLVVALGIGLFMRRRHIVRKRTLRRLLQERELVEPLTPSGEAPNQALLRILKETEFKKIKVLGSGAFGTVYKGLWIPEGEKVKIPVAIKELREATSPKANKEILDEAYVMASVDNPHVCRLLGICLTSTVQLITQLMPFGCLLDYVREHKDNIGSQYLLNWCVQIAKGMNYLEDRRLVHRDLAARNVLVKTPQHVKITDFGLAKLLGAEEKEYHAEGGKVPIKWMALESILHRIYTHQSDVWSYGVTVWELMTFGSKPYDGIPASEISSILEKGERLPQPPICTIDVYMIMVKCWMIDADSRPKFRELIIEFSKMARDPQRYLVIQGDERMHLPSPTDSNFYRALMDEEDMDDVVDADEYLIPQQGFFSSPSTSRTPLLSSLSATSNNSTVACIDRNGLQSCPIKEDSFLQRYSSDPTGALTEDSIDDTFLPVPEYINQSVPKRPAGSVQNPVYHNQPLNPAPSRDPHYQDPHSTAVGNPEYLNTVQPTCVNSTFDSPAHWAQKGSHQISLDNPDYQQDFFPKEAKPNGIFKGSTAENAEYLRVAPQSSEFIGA", "experiment": "In vitro kinase assay (Z'-LYTE), EGFR (ErbB1)", "assay_type": "biochemical", "settings": "read-out: % of inhibition of the kinase compared to the control", "summary_of_the_method": "as §1"}, "[10]": {"target": "T8, FGFR1 (Homo sapiens, UniProt P11362)", "T8 construct": "purchased Invitrogen", "experiment": "In vitro kinase assay (Z'-LYTE), FGFR1", "assay_type": "biochemical", "settings": "read-out: % of inhibition of the kinase compared to the control", "method": "as §2, §3, §4"}, "[11]": {"target": "T9, FGFR2 (Homo sapiens, UniProt P21802)", "T9 construct": "purchased Invitrogen", "T9 sequence (P21802 22-821)": "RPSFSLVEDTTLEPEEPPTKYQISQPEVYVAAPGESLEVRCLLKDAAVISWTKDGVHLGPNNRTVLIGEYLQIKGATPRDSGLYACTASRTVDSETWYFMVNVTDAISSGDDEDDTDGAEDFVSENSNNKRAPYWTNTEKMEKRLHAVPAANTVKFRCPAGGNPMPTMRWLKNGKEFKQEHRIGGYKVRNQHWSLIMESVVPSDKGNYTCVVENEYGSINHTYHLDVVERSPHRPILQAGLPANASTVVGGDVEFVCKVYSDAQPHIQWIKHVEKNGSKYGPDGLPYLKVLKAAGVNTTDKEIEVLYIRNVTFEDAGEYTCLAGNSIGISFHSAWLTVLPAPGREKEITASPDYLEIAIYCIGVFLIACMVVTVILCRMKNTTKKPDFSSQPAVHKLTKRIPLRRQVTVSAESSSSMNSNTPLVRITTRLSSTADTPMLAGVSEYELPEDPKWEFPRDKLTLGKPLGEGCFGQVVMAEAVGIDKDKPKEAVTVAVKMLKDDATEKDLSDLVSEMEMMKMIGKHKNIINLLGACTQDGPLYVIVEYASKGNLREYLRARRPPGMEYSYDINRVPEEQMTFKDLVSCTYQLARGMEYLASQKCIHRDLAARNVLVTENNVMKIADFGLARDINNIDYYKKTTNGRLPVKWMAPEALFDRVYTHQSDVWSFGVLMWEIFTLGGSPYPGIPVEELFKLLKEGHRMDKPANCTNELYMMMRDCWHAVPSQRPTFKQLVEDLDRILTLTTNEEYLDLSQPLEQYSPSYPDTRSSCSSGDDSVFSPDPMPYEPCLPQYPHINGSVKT", "experiment": "In vitro kinase assay (Z'-LYTE), FGFR2", "assay_type": "biochemical", "settings": "read-out: % of inhibition of the kinase compared to the control", "summary_of_the_method": "as §1"}, "[12]": {"target": "T10, ABL T315I (Homo sapiens, UniProt P00519, T315I)", "T10 construct": "purchased Invitrogen", "experiment": "In vitro kinase assay (Z'-LYTE), ABL T315I", "assay_type": "biochemical", "settings": "read-out: % of inhibition of the kinase compared to the control", "method": "as §2, §3, §5, §6"}, "[13]": {"target": "T11, PDGFRB (Homo sapiens, UniProt P09619)", "T11 construct": "purchased Invitrogen", "experiment": "In vitro kinase assay (Z'-LYTE), PDGFRB", "assay_type": "biochemical", "settings": "read-out: % of inhibition of the kinase compared to the control", "method": "as §2, §3, §4"}, "[14]": {"target": "T12, SRC (Homo sapiens, UniProt P12931)", "T12 construct": "purchased Invitrogen", "T12 sequence (P12931 whole entry)": "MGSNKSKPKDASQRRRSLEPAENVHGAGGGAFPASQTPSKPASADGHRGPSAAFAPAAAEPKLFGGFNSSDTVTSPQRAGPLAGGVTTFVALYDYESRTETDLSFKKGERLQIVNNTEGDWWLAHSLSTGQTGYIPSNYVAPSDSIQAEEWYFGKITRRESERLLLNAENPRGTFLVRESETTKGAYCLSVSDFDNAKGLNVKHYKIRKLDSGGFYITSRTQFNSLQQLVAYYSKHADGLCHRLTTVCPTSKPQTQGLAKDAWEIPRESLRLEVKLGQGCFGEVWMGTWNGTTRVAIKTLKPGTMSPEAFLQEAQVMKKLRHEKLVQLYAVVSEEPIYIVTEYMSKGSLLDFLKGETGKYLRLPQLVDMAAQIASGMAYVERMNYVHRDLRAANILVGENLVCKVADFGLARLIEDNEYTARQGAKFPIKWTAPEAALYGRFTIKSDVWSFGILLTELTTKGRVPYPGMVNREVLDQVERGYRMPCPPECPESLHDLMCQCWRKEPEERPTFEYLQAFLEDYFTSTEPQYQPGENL", "experiment": "In vitro kinase assay (Z'-LYTE), SRC", "assay_type": "biochemical", "settings": "read-out: % of inhibition of the kinase compared to the control", "summary_of_the_method": "as §1"}, "[15]": {"test_system": "H1975 cell line", "experiment": "In vitro cell proliferation assay (MTT), H1975", "assay_type": "cell-based", "settings": "Homo sapiens, NCI-H1975; H1975, 72 hr, MTT; read-out: EC50, anti-proliferative activity", "summary_of_the_method": "as §7"}, "[16]": {"test_system": "HUVEC", "experiment": "In vitro cell proliferation assay (MTT), HUVEC", "assay_type": "cell-based", "settings": "Homo sapiens, 72 hr, MTT, read-out: EC50, anti-proliferative activity", "summary_of_the_method": "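HUVEC cells were plated at 1×10^4 cells per well in 96-well plates and exposed in duplicate to increasing compound concentrations from 10 nM to 3 μM for 72 hr. Proliferation was then quantified with MTT (3[4,5-dimethylthiazol-2-yl]-2,5-diphenyltetrazolium bromide) to determine anti-proliferative activity.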"}, "[17]": {"test_system": "HepG2 cell line", "experiment": "In vitro cell proliferation assay (MTT), HepG2", "assay_type": "cell-based", "settings": "Homo sapiens; HepG2, 72 hr, MTT; read-out: EC50, anti-proliferative activity", "summary_of_the_method": "as §7"}, "[18]": {"test_system": "HT29 cell line", "experiment": "In vitro cell proliferation assay (MTT), HT29", "assay_type": "cell-based", "settings": "Homo sapiens, HT-29; HT29, 72 hr, MTT; read-out: EC50, anti-proliferative activity", "summary_of_the_method": "as §7"}},
  "data": [
    {"smiles": "Cc1cn(-c2cc(C(=O)Nc3ccc(C)c(CNc4cnc5[nH]c(C(=O)O)cc5c4)c3)cc(C(F)(F)F)c2)cn1", "note": "[OR0653, 5-{2-Methyl-5-[3-(4-methyl-imidazol-1-yl)-5-trifluoromethyl-benzoylamino]-benzylamino}-1H-pyrrolo[2,3-b]pyridine-2-carboxylic acid]", "values": [
      {"measurement": "EC50", "setting": "[1]", "value": "≥ 1000", "unit": "nM"},
      {"measurement": "inhibition at 0.1 µM", "setting": "[2]", "value": "< 50", "unit": "%"},
      {"measurement": "inhibition at 0.1 µM", "setting": "[3]", "value": "≥ 50", "unit": "%"},
      {"measurement": "inhibition at 10 µM", "setting": "[4]", "value": "≥ 50", "unit": "%"},
      {"measurement": "EC50", "setting": "[5]", "value": "≥ 1000", "unit": "nM"},
      {"measurement": "inhibition at 0.1 µM", "setting": "[6]", "value": "≥ 50", "unit": "%"},
      {"measurement": "inhibition at 0.1 µM", "setting": "[7]", "value": "≥ 50", "unit": "%"},
      {"measurement": "inhibition at 0.1 µM", "setting": "[8]", "value": "≥ 50", "unit": "%"},
      {"measurement": "inhibition at 0.1 µM", "setting": "[9]", "value": "≥ 50", "unit": "%"},
      {"measurement": "inhibition at 0.1 µM", "setting": "[10]", "value": "< 50", "unit": "%"},
      {"measurement": "inhibition at 0.1 µM", "setting": "[11]", "value": "< 50", "unit": "%"},
      {"measurement": "inhibition at 10 µM", "setting": "[12]", "value": "< 50", "unit": "%"},
      {"measurement": "inhibition at 0.1 µM", "setting": "[13]", "value": "< 50", "unit": "%"},
      {"measurement": "inhibition at 0.1 µM", "setting": "[14]", "value": "≥ 50", "unit": "%"}
    ]},
    {"smiles": "Cc1ccc(NC(=O)c2ccc(CN3CCN(C)CC3)c(C(F)(F)F)c2)cc1CNc1cnc2[nH]c(C(=O)O)cc2c1", "note": "[OR0623, 5-{2-Methyl-5-[4-(4-methyl-piperazin-1-ylmethyl)-3-trifluoromethyl-benzoylamino]-benzylamino}-1H-pyrrolo[2,3-b]pyridine-2-carboxylic acid]", "values": [
      {"measurement": "EC50", "setting": "[1]", "value": "≥ 1000", "unit": "nM"},
      {"measurement": "inhibition at 0.1 µM", "setting": "[2]", "value": "< 50", "unit": "%"},
      {"measurement": "inhibition at 0.1 µM", "setting": "[3]", "value": "≥ 50", "unit": "%"},
      {"measurement": "EC50", "setting": "[15]", "value": "≥ 1000", "unit": "nM"},
      {"measurement": "EC50", "setting": "[16]", "value": "≥ 1000", "unit": "nM"},
      {"measurement": "inhibition at 10 µM", "setting": "[4]", "value": "≥ 50", "unit": "%"},
      {"measurement": "EC50", "setting": "[5]", "value": "≥ 1000", "unit": "nM"},
      {"measurement": "EC50", "setting": "[17]", "value": "≥ 1000", "unit": "nM"},
      {"measurement": "inhibition at 0.1 µM", "setting": "[6]", "value": "≥ 50", "unit": "%"},
      {"measurement": "inhibition at 0.1 µM", "setting": "[7]", "value": "≥ 50", "unit": "%"},
      {"measurement": "inhibition at 0.1 µM", "setting": "[8]", "value": "≥ 50", "unit": "%"},
      {"measurement": "inhibition at 0.1 µM", "setting": "[9]", "value": "≥ 50", "unit": "%"},
      {"measurement": "inhibition at 0.1 µM", "setting": "[10]", "value": "≥ 50", "unit": "%"},
      {"measurement": "inhibition at 0.1 µM", "setting": "[11]", "value": "≥ 50", "unit": "%"},
      {"measurement": "inhibition at 10 µM", "setting": "[12]", "value": "≥ 50", "unit": "%"},
      {"measurement": "inhibition at 0.1 µM", "setting": "[13]", "value": "≥ 50", "unit": "%"},
      {"measurement": "EC50", "setting": "[18]", "value": "≥ 1000", "unit": "nM"},
      {"measurement": "inhibition at 0.1 µM", "setting": "[14]", "value": "≥ 50", "unit": "%"}
    ]}
  ]
}
